Laboratory results published in US12616759B2, “Uses of labeled HSP90 inhibitors” (Sloan-Kettering Institute for Cancer Research, priority 2011, dated 2026).

Experiments:
[1] = tested on: FL5.12 mAKT-transfected cells; test: apoptosis in mAKT-transfected FL5.12 cells; type: cell-based
Excerpt: FL5.12 was derived as an interleukin-3 (IL-3)-dependent cell line with a functional JAK/STAT pathway and it has characteristic features of an early lymphocytic progenitor. Both the parental cells and the transfected cells express moderate-levels of active AKT and STAT5, as evidenced by AKT phosphorylation on Ser473 and STAT5 phosphorylation on Tyr694, respectively. The level of p-STAT5 but not p-AKT is dependent on the presence of IL-3. Introduction of a constitutively activated, myristoylated form of AKT (mAKT) under the control of a doxycycline (DOX)-inducible promoter further allows for the regulation of p-AKT levels in these cells. All together, these cells are a good isogenic model to evaluate the dependence of HSP90 inhibitor apoptotic sensitivity on activated AKT and STAT5-pathways.
Cells: Kasumi-1, SKNO-1, MOLM-13, MO-91, HEL, HL-60, THP-1, MV4-11 were grown in RPMI media supplemented with 10 mM HEPES, 4.5 g/L glucose, 1.5 g/L sodium bicarbonate, 1 mM sodium pyruvate, 10% FBS, and 1% penicillin/streptomycin. The stable transfectants of FL5.12 were previously described (18-Karnauskas 2003). In brief, for the generation of FL5.mAKT the myristylated AKT was cloned in the doxycycline inducible vector pRevTRE (Clontech) (this clone is designated mAKT). As a control, cell were transfected with vector alone (this clone is designated Vector). For generation of FL5.mAkt.Bcl-xL, the human Bcl-xL cDNA was cloned into the EcoRI site of the pBabePuro vector, and transfected into FL5.mAkt3 as described (18) (this clone is designated mAKT.Bcl-xL). These lines were cultured as described previously using DME-HG media supplemented with 10 mM HEPES, 10% FBS media containing 1 mg/ml Geneticin (G418) (Sigma #G9516) and 1 or 2 ng/mL of IL-3 (RD Systems #403 ML).
(§1) Apoptosis Assay: Cells were treated for 24, 48 or 72 h with vehicle (DMSO) or inhibitors as indicated. Following staining with Acridine Orange and Ethidium Bromide (1:1 mix of 100 µg/ml), cells were visualized with a fluorescent microscope (Zeiss Axiovert 40 CFL) and counted. Percentage of apoptotic cells was determined from 200-300 cells counted in each group. The percentage of apoptotic cells was calculated as: % Apoptotic cells=(total number of cells with apoptotic nuclei/total number of cells counted)×100.
Western blot: Cells were grown to 60-70% confluence and treated with inhibitor or vehicle for the indicated times. Protein lysates were prepared in 50 mM Tris pH 7.4, 150 mM NaCl and 1% NP-40 lysis buffer. Protein concentrations were measured using the BCA kit (Pierce) according to the manufacturer's instructions. Protein lysates (10-100 μg) were resolved by SDS-PAGE, transferred onto nitrocellulose membrane and incubated with the indicated primary antibodies. […]

[2] = tested on: AML cell lines; test: apoptosis in AML cell lines, acridine orange/ethidium bromide; type: cell-based, human
Method: as §1

[3] = tested on: oncogenic HSP90; test: PU-FITC binding to EpCAM+ circulating tumor cells in PBMCs; type: cell-based, human; details: CTCs, patient with HER2+ metastatic breast cancer
Method: FIGS. 20A and 20B. PU-H71-FITC2 accumulation in EpCAM+ Circulating Tumor Cells: PBMC's isolated from whole blood were pre-treated with PU-FITC or controls (PU-FITC9, DMSO, 1 μM/2×10^6 cells/ml, 4 hrs). Cells were then stained with CD45, CD14 and EpCAM antibodies. FIG. 20A Cells are gated to exclude dead cells. Viable cells are then gated to determine EpCAM+vs CD45+ cells. Monocytes are excluded from the analysis by gating the CD45+ cells further as FSC vs. CD14. FIG. 20B Histogram plots showing the PU-FITC Median florescence intensity (MFI) of CD45+CD14− cells (blue) and EpCAM+ cells (Red). The drug accumulation in EpCAM+ cells is calculated as the ratio of MFI EpCAM+/MFI CD45+CD14− (circulating tumor cells/leukocytes) after subtracting the values of the DMSO and PU-FITC9 controls (used to control for non-specific and background binding).
Measure PU-FITC binding to EpCAM+ circulating tumor cells in PBMC's: All experimental blood sampling procedures were performed under the Institutional Review Board-approved protocols at Memorial Sloan Kettering Cancer Center. […] PBMC's are isolated on ficoll gradients, cells are counted and viability determined by trypan blue dye exclusion assay. PBMC's are spun down and re-suspended to 2×10^6 cells/ml. […] Values are calculated as a ratio of the MFI of Tumor (EpCAM+CD45−CD14−): MFI of EpCAM-CD45+CD14− cells. […]

[4] = tested on: oncogenic HSP90; test: PU-H71-FITC2 binding to pancreatic and breast cancer cell lines relative to HL-60 versus viability
[5] = tested on: MV4-11 and MOLM-13 cells; test: fluorescent PU-H71 derivatives in AML cell lines: flow cytometry, viability
[6] = tested on: oncogenic HSP90; test: PU-H71-FITC2 binding to primary leukemia blasts relative to normal lymphocytes, flow cytometry; type: cell-based, human; details: blast crisis CML cells
Method: Cell viability was analyzed by flow cytometry (BD Biosciences). […] Cells were washed and then analyzed by flow cytometry. Normal mouse IgG2a-PE was used as isotype control.
Analysis is performed using FlowJo software.

[7] = tested on: HSP70; test: HSP70 induction in hippocampus of 3×Tg AD mice; type: in vivo; details: i.p., 24 h
Method: FIGS. 43A, 43B, and 43C. 8-10 mo 3×Tg mice were administered 75 mg/kg (FIG. 43A) or the indicated dose of the HSP90 inhibitor PU-HZ151 (FIG. 43B) and the PD marker, HSP70, was measured in hippocampus, an afflicted brain region in this model of AD, at 24 h post-administration. HSP70 is induced when HSP90 is inhibited and its induction is an indicator that therapeutic levels of the HSP90 inhibitor were delivered to the brain region of interest. FIG. 43C: Levels of the HSP90 inhibitor in the indicated brain regions and plasma were determined by LC-MS/MS after the administration of 50 mg/kg PU-HZ151. Hsp90 inhibitor levels at different times after single ip injection are shown in micromolar units. Brain exposure was also measured as the area under the curve (AUC).
Pharmacodynamic analyses. For protein analysis, selected brain region (hippocampus) was homogenized in SDS lysis buffer (50 mM Tris pH 7.4, 2% SDS) and subjected to Western blot analysis. Levels of proteins were be analyzed by immunoblotting with anti-Hsp70 and Hsp90 antibodies.

[8] = in vivo; details: 3×Tg AD, mouse
[9] = tested on: lung and bone metastases; test: response of breast cancer patient to STA9090 by CT and FDG-PET; type: in vivo, human; details: triple-negative breast cancer patient
Method: FIGS. 28A, 28B, 28C, and 28D. A triple-negative breast cancer patient was imaged with ^124I-PU-H71 PET. At 20 min post-injection, uptake is noted in a lung mass (left arrow), and a bone lesion (right arrow) FIG. 28A, but at 24 h uptake is seen only in the lung lesion FIG. 28B. Both the lung and bone tumors are confirmed by CT and FDG-scans FIG. 28C. The patient started treatment with the HSP90 inhibitor STA-9090.
In another aspect of the present invention, patients who are identified as being candidates for HSP90 therapy are treated with a pharmaceutically effective amount of an HSP90 inhibitor. We have determined that cancer patients that are determined to be candidates to HSP90 inhibition therapy respond highly favorably to HSP90 inhibition therapy. If a patient has multiple tumors, then only those tumors with a sufficient avidity for the radiolabeled HSP90 inhibitor are expected to respond to HSP90 inhibition therapy. […] Similar results were obtained in patients with lymphoma, pancreatic cancer and neuroblastoma patients.

## O=c1[nH]c2ccccc2n1C1CCN(Cc2ccc(-c3nc4cc5[nH]cnc5cc4nc3-c3ccccc3)cc2)CC1 [AKTi, reference compound]
[1]; AKT activity increased by DOX
  apoptotic cells: 30%
[1]; without DOX
  apoptotic cells: 15-20%
[2]; HEL cells in culture
  effect on apoptosis: little to no effect

## COc1cccc(-c2cc(=O)c3ccccc3o2)c1N [MEKi, reference compound]
[2]; 24, 48 and 72 h
  induction of apoptosis: Modest or little induction of apoptosis

## CC(C)N(CCCn1c(Sc2cc3c(cc2I)OCO3)nc2c(N)ncnc21)C(=S)Nc1ccc(-c2c3ccc(=O)cc-3oc3cc(O)ccc23)c(C(=O)O)c1 [PU-H71-FITC2]
[3]
  fold more bound by tumor cells than leukocytes (CD45+CD14− cells): around 84 fold
[4]
  binding to HL-60 leukemia cells: low to no binding
[5]; 1 μM
  permeation of live cells and target binding: permeate live cells and bind to the target
[5]; MOLM-13, 1 μM, 24 h
  effect on viability of leukemia cells: reduce the viability of leukemia cells
[6]
  binding relative to normal lymphocytes: over 4 fold

## CC(C)(C)CNCCn1c(Sc2cc3c(cc2I)OCO3)nc2c(N)ncnc21 [PU-HZ151]
[7]
  lowest administered dose with significant induction of HSP70: 10 mg/kg
[8]
  Kp: 2.5

## CC(C)c1cc(-c2n[nH]c(=O)n2-c2ccc3c(ccn3C)c2)c(O)cc1O [STA9090]
[9]
  tumor response: early partial response was demonstrated by FDG PET-CT studies in the lung mass but not in the spinal lesion
[9]; listed as STA-9090
  tumor response: the lung but not the bone lesion is remarkably reduced in size
